Laboratory results as given in patent US12594263B2, “CBL inhibitors and compositions for expansion of immune cells” (Nurix Therapeutics, Inc., priority 2019, dated 2026).
“Also recorded” adds a separate entry of the source.

Assays:
[1] = tested on: E.G7-OVA tumors; assay: Adoptive transfer of ex vivo expanded OT-1 cells into E.G7-OVA tumor-bearing mice: tumor volume and survival; format: in vivo, mouse
Protocol: (§1) Dead cells were removed (Miltenyi Biotec Cat #130-090-101) prior to transfer in vivo to monitor their trafficking and function in an EG.7 lymphoma model, which expresses the OVA antigen. Approximately five million cells per mouse were transferred to mice having an average tumor burden of about 70 mm^3. Following in vivo transfer of the OT-1 cells, antitumor response was monitored over time and the quality and quantity of immune response were assessed at various time points.
(§2) The expanded OT-1 cells were characterized by FACS analysis and transferred into E.G7-OVA mice, which bear ovalbumin (OVA) expressing tumors. Following in vivo transfer of expanded OT-1 cells, antitumor response was monitored over time and the quality and quantity of immune response was assessed at various time points. Analysis included FACS analysis on blood, tumor, and spleen samples. Analysis also included re-stimulation of splenocytes with OVA Class I peptide to evaluate the multifunctionality of the antigen-specific effector T cells.
(§3) On Day 0, E.G7-OVA cells were implanted into each mouse. On Day 5, approximately 5×10^6 in vitro expanded OT-1 cells were injected into the tail of each mouse. On Day 9, blood was analyzed by FACS. On Day 14, blood, tumor and spleen samples were analyzed by FACS. On Day 27, blood was analyzed by FACS. Tumor volume was measured approximately every five days through about 50 days post implant.

[2] = tested on: human T cells from donor PBMC; assay: Flow cytometry immunophenotyping of T cells expanded from donor PBMC; format: cell-based
From the text: At day eleven, cells were pooled and counted, and immunophenotyped at day 11 by flow cytometry by measuring expression of lineage (CD4, CD8) and differentiation (including CD45RA, CD45RO, CD95, CCR7, CD62L, TCF1, PD-1, TIM3, LAG3) markers.
T lymphocytes were defined based on lineage and differentiation marker expression according to the developmental model (Restifo, Blood, 124:476-477, 2014), as shown in Table 4.

[3] = tested on: OT-1 cells; assay: Re-stimulation of harvested splenocytes with OVA Class I peptide; format: cell-based, mouse
Protocol: as §2
Expanded OT-1 cells were assessed from splenocytes 11 days after transfer. Harvested splenocytes were re-stimulated with OVA Class I peptide for 72 hours.
Expanded OT-1 cells were assessed from splenocytes 11 days after transfer. Harvested splenocytes were re-stimulated with OVA Class I peptide for 4 hours.
Expanded OT-1 cells were assessed from splenocytes 11 days after transfer. Harvested splenocytes were re-stimulated with OVA Class I peptide for 24 hours.

[4] = tested on: human tumor-infiltrating lymphocytes (TIL); assay: Rapid Expansion Protocol (REP) of TIL; format: cell-based; conditions: alone or with IL-2 6000 IU/mL
Protocol: PBMC, OKT3 antibody (30 ng/mL), complete medium (“CM”), AIM V media (GIBCO/BRL), and TIL effector cells were combined, mixed, and aliquoted to a 75 cm^2 tissue culture flask. Flasks were incubated upright at 37° C. in 5% CO2. […] About 14 days after initiation of the REP, cells were harvested and cryopreserved for future experimental analysis.

[5] = tested on: OT-1 cells; assay: In vivo frequency, persistence and exhaustion markers of transferred OT-1 cells (blood, spleen, tumor, FACS); parameters: species or system mouse
Protocol: as §1, §2, §3
OT-1 cells were expanded according to the previous examples and administered to E.G7-OVA mice, which bear ovalbumin (OVA) expressing tumors. The cells were evaluated for their in vivo properties.
Expanded OT-1 cells were assessed in blood 4 days and 22 days after transfer.
Expanded OT-1 cells were assessed in tumors 4 days after transfer.

[6] = second study, anti-CD3 stimulated OT-1 cells

With C[C@@H]1CN(Cc2cc3c(c(C(F)(F)F)c2)CN(c2cccc(C4(Cc5nncn5C)COC4)c2)C3=O)CCC1(F)F [Compound 103] the “Anti-tumor phenotype of transferred T cells” value ([1]; 3-day ex vivo exposure, alone or in combination with IL-2) was “conferred a lasting anti-tumor phenotype for over a month”, the “Potency of expanded CD8+ OT-1 cells (tumor volume, FIGS. 11A and 11B)” value ([1]; expansion at 1 μM, IL-2 300 IU, E.G7-OVA mice) was “at least as potent as CD8+OT-1 cells expanded with IL-2” and the “Rejection of established tumors by expanded OT-1 cells (FIG. 9)” value ([1]; mice subcutaneously implanted with E.G7-OVA cells) was “potent effectors capable of rejecting established tumors”. The “Long-term survival (FIG. 12B)” value [1, 6] was “improved long-term survival”, the “Potency of expanded OT-1 cells, inhibition of tumor growth (FIG. 12A)” value [1, 6] was “increased potency compared to IL-2 expanded cells; also recorded: increased potency compared to TL-2 expanded cells” and the “Percentage of CD8+ cells in culture” value ([2]; 1 μM Cbl inhibitor alone, versus IL-2 alone) was “higher percentages of CD8+ cells than those cultured in IL-2 alone”. The “Phenotype of human T cells expanded ex vivo” value ([2]; donor PBMC, Table 7) was “TSCM (CD45RA+, CD95+, CCR7+, CD62L+), TCM (CD45RO+, CD95+, CCR7+, CD62L+) or TEM (CD45RO+, CD95+, CCR7−, CD62L−) phenotype”, the “CD4 TsCM, percentage of total cell number on day 11” value ([2]; donor PBMC, 0.1 μM Cbl-i, alone or with IL-2) was 12% and the “Selective expansion of CD8+ T lymphocytes” value ([2]; donor PBMCs, FIGS. 2A and 2B) was “selectively expand CD8+ T lymphocytes from donor PBMCs”. For the same compound, the “Exhaustion markers (PD1 and TIM3) in multifunctional cells” value ([3]; OVA Class I peptide 4 hours, versus IL-2 alone (FIG. 16C)) was “lower level of expression of exhaustion markers (PD1 and TIM3)”, the “Multifunctionality (IFN-gamma and TNF-alpha double positive cells)” value ([3]; OVA Class I peptide 4 hours, versus IL-2 alone (FIGS. 16A, 16B)) was “comparable multifunctionality” and the “IL-2 production upon restimulation” value ([3]; OVA Class I peptide 24 hours (FIG. 17B)) was “increased IL-2 production upon restimulation”. For the same compound, the “Ability to proliferate in response to peptide restimulation” value ([3]; splenocytes 11 days after transfer, OVA Class I peptide 72 hours (FIG. 15)) was “superior intrinsic ability to proliferate in response to peptide restimulation”, the “Percentage of total cell number relative to IL-2 alone on day 42 (Pre-REP and REP)” value ([4]; TIL1 (ovary), 0.1 μM Cbl-i) was 40% and the “Percentage of total cell number relative to IL-2 alone on day 42 (Pre-REP and REP)” value ([4]; TIL1 (ovary), 1.0 μM Cbl-i) was 42%. For the same compound, the “Percentage of total cell number relative to IL-2 alone on day 42 (Pre-REP and REP)” value ([4]; TIL1 (ovary), 10 μM Cbl-i) was 32%, the “Percentage of total cell number relative to IL-2 alone on day 42 (Pre-REP and REP)” value ([4]; TIL3 (ovary), 1.0 μM Cbl-i) was 150% and the “Percentage of total cell number relative to IL-2 alone on day 42 (Pre-REP and REP)” value ([4]; TIL4 (colon), 0.1 μM Cbl-i) was 80%. For the same compound, the “Percentage of total cell number relative to IL-2 alone on day 42 (Pre-REP and REP)” value ([4]; TIL4 (colon), 1.0 μM Cbl-i) was 80%, the “Percentage of total cell number relative to IL-2 alone on day 42 (Pre-REP and REP)” value ([4]; TIL6 (ovary), 0.1 μM Cbl-i) was 51% and the “Percentage of total cell number relative to IL-2 alone on day 42 (Pre-REP and REP)” value ([4]; TIL6 (ovary), 1.0 μM Cbl-i) was 63%. The “Percentage of total cell number relative to IL-2 alone on day 42 (Pre-REP and REP)” value ([4]; TIL6 (ovary), 10 μM Cbl-i) was 49%, the “Cells expressing stem markers TCF1+, PD-1+ and TIM-3+” value ([5]; OT-1 cells after transfer) was “greater percentage of cells that expressed stem markers” and the “Frequency of OT-1 cells in total CD8+ T cells and CD45+ cells and persistence” value ([5]; blood, 4 or 9 days after transfer (FIG. 10)) was “higher frequency in total CD8+ T cells and CD45+ cells and in vivo persistence in the blood”. For the same compound, the “Frequency of OT-1 cells in total CD45+ cells and persistence” value ([5]; blood, 4 days and 22 days after transfer (FIGS. 13A, 13B)) was “higher frequency in total CD45+ cells and persisted longer than cells expanded with IL-2 alone”, the “Expression of exhaustion markers PD1, TIM3, LAG3” value ([5]; tumor, versus IL-2 alone (FIGS. 14B, 14C)) was “lower level of expression of exhaustion markers” and the “Tumor infiltration, frequency of OT-1 cells in total CD45+ cells” value ([5]; tumors, 4 days after transfer (FIG. 14A)) was “increased ability to infiltrate the tumor”.
